Data as given in patent US7390806B2, “Antibiotics containing borinic acid complexes and methods of use” (Anacor Pharmaceuticals, Inc., priority 2002, dated 2008).
Values after ≈ are worked out from the molar mass of the structure shown. Read-outs that look alike come from different tables or passages of the source.

Tests used:
H. influenzae ATCC 49766 = assay: MIC determination, H. influenzae ATCC 49766; format: cell-based, Haemophilus influenzae; conditions: Table 2; for MIC: Haemophilus influenzae, ATCC49766
[1] = system: S. epidermidis ATCC 12228; assay: MIC determination, S. epidermidis ATCC 12228; format: cell-based, Staphylococcus epidermidis; conditions: for MIC: Staphylococcus epidermidis, read-out: MIC S. epidermidis ATCC 12228
S. aureus ATCC 29213 = assay: MIC determination, S. aureus ATCC 29213; format: cell-based, Staphylococcus aureus; conditions: for MIC: Staphylococcus aureus, read-out: MIC S. aureus ATCC 29213
E. faecium CT-26 = assay: MIC determination, E. faecium CT-26; format: cell-based, Enterococcus faecium; conditions: for MIC: Enterococcus faecium, read-out: MIC E. faecium CT-26
E. faecalis ATCC 29212 = assay: MIC determination, E. faecalis ATCC 29212; format: cell-based, Enterococcus faecalis; conditions: for MIC: Enterococcus faecalis, read-out: MIC E. faecalis ATCC 29212
S. pneumoniae ATCC 6301 = assay: MIC determination, S. pneumoniae ATCC 6301; format: cell-based, Streptococcus pneumoniae; conditions: for MIC S. pneumoniae ATCC 6301: Table 1; for MIC: Streptococcus pneumoniae, ATCC6301, Table 1, read-out: MIC S. pneumoniae ATCC 6301
[2] = system: M. catarrhalis ATCC 25238; assay: MIC determination, M. catarrhalis ATCC 25238; format: cell-based; conditions: for MIC M. catarrhalis ATCC 25238: Table 1

Row | SMILES | MIC S. pneumoniae ATCC 6301 (S. pneumoniae ATCC 6301) [micrograms per ml] | MIC S. epidermidis ATCC 12228 ([1]; Table 1) [micrograms per ml] | MIC S. aureus ATCC 29213 (S. aureus ATCC 29213; Table 1) [micrograms per ml] | MIC M. catarrhalis ATCC 25238 [2] [micrograms per ml] | MIC E. faecium CT-26 (E. faecium CT-26; Table 1) [micrograms per ml] | MIC E. faecalis ATCC 29212 (E. faecalis ATCC 29212; Table 1) [micrograms per ml] | further results
1 | O=C(O)c1cccnc1C(=O)O [Compound 110, 3-carboxypicolinic acid] |  |  |  |  |  |  | MIC (H. influenzae ATCC 49766): 8 µg/mL (≈ 47.9 µM); MIC ([1]; ATCC12228, Table 2): 4 µg/mL (≈ 23.9 µM); MIC (S. aureus ATCC 29213; ATCC29213, Table 2): 0.125 µg/mL (≈ 0.748 µM); MIC (E. faecium CT-26; CT26, Table 2): 8 µg/mL (≈ 47.9 µM); MIC (E. faecalis ATCC 29212; ATCC29212, Table 2): 8 µg/mL (≈ 47.9 µM)
2 | O=C(O)c1ncccc1OCCO [Compound 107] |  |  |  |  |  |  | MIC (H. influenzae ATCC 49766): 32 µg/mL (≈ 175 µM); MIC ([1]; ATCC12228, Table 2): 4 µg/mL (≈ 21.8 µM); MIC (S. aureus ATCC 29213; ATCC29213, Table 2): 0.125 µg/mL (≈ 0.682 µM); MIC (E. faecium CT-26; CT26, Table 2): 8 µg/mL (≈ 43.7 µM); MIC (E. faecalis ATCC 29212; ATCC29212, Table 2): 16 µg/mL (≈ 87.4 µM)
3 | O=C(O)c1ncccc1O [Compound 114, 3-hydroxypicolinic acid] |  |  |  |  |  |  | MIC H. influenzae ATCC 49766 (H. influenzae ATCC 49766): 16 micrograms per ml; MIC S. epidermidis ATCC 12228 ([1]; Table 2): 8 micrograms per ml; MIC S. aureus ATCC 29213 (S. aureus ATCC 29213; Table 2): 0.125 micrograms per ml; MIC E. faecium CT-26 (E. faecium CT-26; Table 2): 64 micrograms per ml; MIC E. faecalis ATCC 29212 (E. faecalis ATCC 29212; Table 2): 64 micrograms per ml
4 | O=C(O)c1ncccc1OCCN1CCOCC1 [Compound 108] |  |  |  |  |  |  | MIC (H. influenzae ATCC 49766): 64 µg/mL (≈ 254 µM); MIC ([1]; ATCC12228, Table 2): 4 µg/mL (≈ 15.9 µM); MIC (S. aureus ATCC 29213; ATCC29213, Table 2): 0.25 µg/mL (≈ 0.991 µM); MIC (E. faecium CT-26; CT26, Table 2): 2 µg/mL (≈ 7.93 µM); MIC (E. faecalis ATCC 29212; ATCC29212, Table 2): 4 µg/mL (≈ 15.9 µM)
5 | CC(=O)Oc1ccc[n+]2c1C(=O)O[B-]2(c1ccc(C)c(Cl)c1)c1ccc(C)c(Cl)c1 [Compound 119] |  |  |  |  |  |  | MIC H. influenzae ATCC 49766 (H. influenzae ATCC 49766): 64 micrograms per ml; MIC S. epidermidis ATCC 12228 ([1]; Table 2): 1 micrograms per ml; MIC S. aureus ATCC 29213 (S. aureus ATCC 29213; Table 2): 2 micrograms per ml; MIC E. faecium CT-26 (E. faecium CT-26; Table 2): 2 micrograms per ml; MIC E. faecalis ATCC 29212 (E. faecalis ATCC 29212; Table 2): 2 micrograms per ml
6 | C[C@@H](O)[C@H]1C(=O)N2C(C(=O)O)=C(S[C@@H]3CN[C@H](C(=O)N(C)C)C3)[C@H](C)[C@H]12 [Meropenem, reference compound] |  |  |  |  |  |  | MIC (H. influenzae ATCC 49766): 0.06 µg/mL (≈ 0.156 µM); MIC ([1]; ATCC12228, Table 1): 0.06 µg/mL (≈ 0.156 µM); MIC ([1]; ATCC12228, Table 2): 0.06 µg/mL (≈ 0.156 µM); MIC (S. aureus ATCC 29213; ATCC29213, Table 1): 0.06 µg/mL (≈ 0.156 µM); MIC (S. aureus ATCC 29213; ATCC29213, Table 2): 0.06 µg/mL (≈ 0.156 µM); MIC (E. faecalis ATCC 29212; ATCC29212, Table 1): 2 µg/mL (≈ 5.22 µM); MIC (E. faecalis ATCC 29212; ATCC29212, Table 2): 2 µg/mL (≈ 5.22 µM)
7 | CC[C@H]1OC(=O)[C@H](C)[C@@H](O[C@H]2C[C@@](C)(OC)[C@@H](O)[C@H](C)O2)[C@H](C)[C@@H](O[C@@H]2O[C@H](C)C[C@H](N(C)C)[C@H]2O)[C@](C)(O)C[C@@H](C)C(=O)[C@H](C)[C@@H](O)[C@]1(C)O [Erythromycin, reference compound] |  |  |  |  |  |  | MIC (H. influenzae ATCC 49766): 4 µg/mL (≈ 5.45 µM); MIC ([1]; ATCC12228, Table 1): 0.5 µg/mL (≈ 0.681 µM); MIC ([1]; ATCC12228, Table 2): 0.5 µg/mL (≈ 0.681 µM); MIC (S. aureus ATCC 29213; ATCC29213, Table 1): 0.5 µg/mL (≈ 0.681 µM); MIC (S. aureus ATCC 29213; ATCC29213, Table 2): 0.5 µg/mL (≈ 0.681 µM); MIC (E. faecalis ATCC 29212; ATCC29212, Table 1): 2 µg/mL (≈ 2.73 µM); MIC (E. faecalis ATCC 29212; ATCC29212, Table 2): 2 µg/mL (≈ 2.73 µM)
8 | Oc1cccc2cccnc12 [Compound 100, 8-hydroxyquinoline] | 2 | 1 | 2 | 1 | 2 | 4 | 
9 | Oc1cccc2cccnc12 [Compound 47, 8-hydroxyquinoline] | 1 | 1 | 1 | 1 | 2 | 8 | 
10 | Oc1cccc2cccnc12 [Compound 37, 8-hydroxyquinoline] | 1 | 1 | 1 | 1 | 2 | 8 | 
11 | Oc1cccc2cccnc12 [Compound 84, 8-hydroxyquinoline] | 2 | 1 | 2 | 4 | 4 | 8 | 
12 | Oc1ccc(F)c2cccnc12 [Compound 62] | 2 | 2 | 2 | 2 | 4 | 8 | 
13 | Oc1ccc(F)c2cccnc12 [Compound 57] | 4 | 2 | 2 | 1 | 4 | 16 | 
14 | Oc1ccc(F)c2cccnc12 [Compound 64] | 4 | 2 | 2 | 1 | 8 | 8 | 
15 | Oc1cccc2cccnc12 [Compound 74, 8-hydroxyquinoline] | 2 | 1 | 2 | 1 | 2 | 32 | 
16 | COc1cccc2c(O)cc(C(=O)O)nc12 [Compound 25] |  |  |  |  |  |  | MIC (S. pneumoniae ATCC 6301): 2 µg/mL (≈ 9.12 µM); MIC ([1]; ATCC12228, Table 1): 8 µg/mL (≈ 36.5 µM); MIC (S. aureus ATCC 29213; ATCC29213, Table 1): 0.5 µg/mL (≈ 2.28 µM); MIC ([2]; Moraxella catarrhalis, ATCC25238, Table 1, read-out: MIC M. catarrhalis ATCC 25238): 2 µg/mL (≈ 9.12 µM); MIC (E. faecium CT-26; CT26, Table 1): 16 µg/mL (≈ 73 µM); MIC (E. faecalis ATCC 29212; ATCC29212, Table 1): 16 µg/mL (≈ 73 µM)
17 | N#Cc1ccc(OB(c2cccc(Cl)c2)c2cccc(Cl)c2)c2ncccc12 [Compound 19, Bis(3-Chlorophenyl)borinic acid 5-cyano-8-hydroxyquinoline ester] | 4 | 2 | 0.25 | 0.5 | 4 | 16 | 
18 | Oc1cccc2cccnc12 [Compound 73, 8-hydroxyquinoline] | 2 | 1 | 2 | 0.25 | 8 | 64 | 
19 | Oc1cccc2cccnc12 [Compound 68, 8-hydroxyquinoline] | 16 | 2 | 2 | 0.12 | 4 | 32 | 
20 | Oc1ccc(F)c2cccnc12 [Compound 58] | 2 | 2 | 2 | 0.5 | 4 | 8 | 
21 | Oc1cccc2cccnc12 [Compound 93, 8-hydroxyquinoline] | 1 | 1 | 2 | 1 | 4 | 8 | 
22 | Clc1cccc(B(Oc2cccc3cccnc23)c2cccs2)c1 [Compound 36, (3-Chlorophenyl)(2-thienyl)borinic acid 8-hydroxyquinoline ester] | 2 | 1 | 1 | 4 | 2 | 8 | 
23 | Oc1cccc2cccnc12 [Compound 32, 8-hydroxyquinoline] | 1 | 1 | 1 | 2 | 2 | 16 | 
24 | Oc1cccc2cccnc12 [Compound 80, 8-hydroxyquinoline] | 2 | 1 | 2 | 2 | 4 | 4 | 
25 | Oc1ccc(F)c2cccnc12 [Compound 12] |  |  | 0.125 | 2 |  |  | MIC (S. pneumoniae ATCC 6301): 2 µg/mL (≈ 12.3 µM); MIC ([1]; ATCC12228, Table 1): 2 µg/mL (≈ 12.3 µM); MIC (E. faecium CT-26; CT26, Table 1): 4 µg/mL (≈ 24.5 µM); MIC (E. faecalis ATCC 29212; ATCC29212, Table 1): 8 µg/mL (≈ 49 µM)
26 | Oc1cccc2cccnc12 [Compound 89, 8-hydroxyquinoline] | 1 | 1 | 2 | 2 | 2 | 8 | 
